Holding throughout (experiment): antibacterial potency, serial dilution technique (MIC)
Holding throughout (format): cell-based

One experiment has as its system S. aureus. To be noted: Staphylococcus aureus, read-out: Minimum Inhibitory Concentration.
In a further experiment the test system is Co. liquefaciens. To be noted: read-out: Minimum Inhibitory Concentration.
Another experiment relates to He. Vaginalis. To be noted: Gardnerella vaginalis, read-out: Minimum Inhibitory Concentration.
The test system of the next experiment is St. agalactiae. To be noted: Streptococcus agalactiae, read-out: Minimum Inhibitory Concentration.
The next experiment relates to P. multocida. To be noted: Pasteurella multocida, read-out: Minimum Inhibitory Concentration.

Converted amounts (≈) assume the structure as drawn.

For the compound `O=C(CC(O)c1ccccc1)Sc1ccc(Cl)cc1` (stereo not drawn) [I, S-(4-Chlorophenyl)-3-Hydroxy-3-phenylpropanethioate], the MIC with S. aureus worked out at 6.25 µg/mL (≈ 21.3 µM); with Co. liquefaciens it was 6.25 µg/mL (≈ 21.3 µM); in the experiment on He. Vaginalis, 12.5 µg/mL (≈ 42.7 µM); with St. agalactiae, 3.13 µg/mL (≈ 10.7 µM); in the experiment on P. multocida, 6.25 µg/mL (≈ 21.3 µM).
As for `Cc1ccc(C(O)CC(=O)Sc2ccc(Cl)cc2)cc1` (stereo not drawn) [II, S-(4-Chlorophenyl) 3-Hydroxy-3-(4-methylphenyl)propanethioate], the MIC amounted to 12.5 µg/mL (≈ 40.7 µM) with S. aureus; 12.5 µg/mL (≈ 40.7 µM) in the experiment on Co. liquefaciens; 3.1 µg/mL (≈ 10.1 µM) with He. Vaginalis; 3.13 µg/mL (≈ 10.2 µM) with St. agalactiae; 3.13 µg/mL (≈ 10.2 µM) with P. multocida.
As for `CCc1ccc(C(O)CC(=O)Sc2ccc(Cl)cc2)cc1` (stereo not drawn) [III, S-(4-Chlorophenyl) 3-(4-Ethylphenyl)-3-hydroxypropanethioate], the MIC turned out to be 6.25 µg/mL (≈ 19.5 µM) in the experiment on S. aureus; 6.25 µg/mL (≈ 19.5 µM) in the experiment with Co. liquefaciens; 6.25 µg/mL (≈ 19.5 µM) in the experiment with He. Vaginalis; 3.13 µg/mL (≈ 9.76 µM) with St. agalactiae; 6.25 µg/mL (≈ 19.5 µM) with P. multocida.
`O=C(CC(O)c1ccc(Cl)cc1)Sc1ccc(Cl)cc1` (stereo not drawn) [IV, S-(4-Chlorophenyl) 3-(4-Chlorophenyl)-3-hydroxypropanethioate]: the MIC in the experiment on S. aureus was found to be 12.5 µg/mL (≈ 38.2 µM); in the experiment with Co. liquefaciens, 6.25 µg/mL (≈ 19.1 µM); in the experiment with He. Vaginalis it was 3.1 µg/mL (≈ 9.47 µM); in the experiment on St. agalactiae it was 6.25 µg/mL (≈ 19.1 µM); in the experiment with P. multocida it was 6.25 µg/mL (≈ 19.1 µM).
Take `O=C(CC(O)c1ccc(Cl)cc1Cl)Sc1ccc(Cl)cc1` (stereo not drawn) [V, S-(4-Chlorophenyl) 3-(2,4-Dichlorophenyl)-3-hydroxypropanethioate]: the MIC with S. aureus worked out at 6.25 µg/mL (≈ 17.3 µM); in the experiment with Co. liquefaciens, 3.1 µg/mL (≈ 8.57 µM); in the experiment with He. Vaginalis, 12.5 µg/mL (≈ 34.6 µM); in the experiment with St. agalactiae it was 12.5 µg/mL (≈ 34.6 µM); with P. multocida, 25 µg/mL (≈ 69.1 µM).
As for `O=C(CC(O)c1ccc(Cl)c(Cl)c1)Sc1ccc(Cl)cc1` (stereo not drawn) [VI, S-(4-Chlorophenyl) 3-(3,4-Dichlorophenyl)-3-hydroxypropanethioate], the MIC stood at 25 µg/mL (≈ 69.1 µM) with S. aureus; 12.5 µg/mL (≈ 34.6 µM) with Co. liquefaciens; 25 µg/mL (≈ 69.1 µM) with He. Vaginalis; 12.5 µg/mL (≈ 34.6 µM) in the experiment with St. agalactiae; 25 µg/mL (≈ 69.1 µM) in the experiment on P. multocida.
`Cc1ccc(C(O)CC(=O)Sc2ccc(Cl)cc2)cc1Cl` (stereo not drawn) [VII, S-(4-Chlorophenyl) 3-(3-Chloro-4-methylphenyl)-3-hydroxypropanethioate]: the MIC turned out to be 12.5 µg/mL (≈ 36.6 µM) in the experiment on S. aureus; 12.5 µg/mL (≈ 36.6 µM) with Co. liquefaciens; 25 µg/mL (≈ 73.3 µM) with He. Vaginalis; 12.5 µg/mL (≈ 36.6 µM) in the experiment with St. agalactiae; 25 µg/mL (≈ 73.3 µM) in the experiment with P. multocida.
